Source: patent US9695155B2, “Herbicidal substituted pyrimidinyloxy benzene compounds” (E. I. DU PONT DE NEMOURS AND COMPANY, priority 2013, dated 2017)

Columns and labels:
[1] = tested on: Italian ryegrass; experiment: Test E postemergence; type: in vivo, Lolium multiflorum
Description: (§1) Seeds of plant species selected from corn (Zea mays), soybean (Glycine max), velvetleaf (Abutilon theophrasti), lambsquarters (Chenopodium album), wild poinsettia (Euphorbia heterophylla), palmer pigweed (Amaranthus palmeri), waterhemp (common waterhemp, Amaranthus rudis), surinam grass (Brachiaria decumbens), large (Lg) crabgrass (Digitaria sanguinalis), Brazilian crabgrass (Digitaria horizontalis), fall panicum (Panicum dichotomiflorum), giant foxtail (Setaria faberii), green foxtail (Setaria viridis), goosegrass (Eleusine indica), johnsongrass (Sorghum halepense), ragweed (common ragweed, Ambrosia elatior), barnyardgrass (Echinochloa crus-galli), sandbur (southern sandbur, Cenchrus echinatus), arrowleaf sida (Sida rhombifolia), Italian ryegrass (Lolium multiflorum), dayflower (Virginia (VA) dayflower, Commelina virginica), field bindweed (Convolvulus arvensis), morningglory (Ipomoea coccinea), nightshade (eastern black nightshade, Solanum ptycanthum), kochia (Kochia scoparia), yellow nutsedge (Cyperus esculentus), cocklebur (common cocklebur, Xanthium strumarium), smartweed (ladysthumb smartweed, and hairy beggarticks (Bidens pilosa), were planted into a silt loam soil and treated preemergence with test chemicals formulated in a non-phytotoxic solvent mixture which included a surfactant.
(§2) At the same time, plants from these crop and weed species and also horseweed (Canada horseweed, Conyza canadensis), waterhemp_RES1, (ALS & Triazine resistant common waterhemp, Amaranthus rudis), and waterhemp_RES2, (ALS & HPPD resistant common waterhemp, Amaranthus rudis) were planted in pots containing Redi-Earth® planting medium (Scotts Company, 14111 Scottslawn Road, Marysville, Ohio 43041) comprising spaghnum peat moss, vermiculite, wetting agent and starter nutrients were treated with postemergence applications of test chemicals formulated in the same manner. Plants ranged in height from 2 to 18 cm for postemergence treatments (1- to 4-leaf stage). Treated plants and controls were maintained in a greenhouse for 14 to 21 days, after which time all species were compared to controls and visually evaluated. Plant response ratings, summarized in Table E, are based on a scale of 0 to 100 where 0 is no effect and 100 is complete control. A dash (-) response means no test result.

[2] = tested on: arrowleaf sida; experiment: Test E postemergence; type: in vivo, Sida rhombifolia
How it was run: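 Response was scored visually on a 0-100 scale (100 = complete control) versus controls after 14 to 21 days in the greenhouse. Test chemicals, formulated with surfactant in a non-phytotoxic solvent mixture, had been applied preemergence to seeds in silt loam soil or postemergence to 1- to 4-leaf plants in potting medium.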

[3] = tested on: cocklebur; experiment: Test E preemergence; type: in vivo, Xanthium strumarium; conditions: scale 0 to 100 (0 no effect, 100 complete control)
Description: as §1, §2

[4] = tested on: wild oat; experiment: Test D preemergence; type: in vivo, Avena fatua; conditions: Avena fatua, pre-emergence
How it was run: (§3)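 Visual ratings from 0 (no effect) to 100 (complete control) relative to untreated plants were taken 7–21 days after treatment. Chemicals in a surfactant-containing solvent mixture were applied preemergence to seeds in silt loam, or postemergence to plants 2–18 cm tall (1–4 leaves) grown in a peat-based potting medium.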

[5] = tested on: wild buckwheat; experiment: Test D postemergence; type: in vivo, Polygonum convolvulus; conditions: Fallopia convolvulus, post-emergence, Postemergence, scale 0 to 100 (0 no effect, 100 complete control), read-out: Plant response rating, Buckwheat, Wild
How it was run: as §3

[6] = tested on: chamomile; experiment: Test D preemergence; type: in vivo, Matricaria inodora; conditions: Tripleurospermum inodorum, pre-emergence
How it was run: as §3

[7] = tested on: winter wheat; experiment: Test D preemergence; type: in vivo, Triticum aestivum; conditions: Triticum aestivum, pre-emergence
How it was run: as §3

[8] = tested on: spring wheat; experiment: Test D preemergence; type: in vivo, Triticum aestivum; conditions: Triticum aestivum, pre-emergence
How it was run: as §3

[9] = tested on: winter wheat; experiment: Test D postemergence; type: in vivo, Triticum aestivum; conditions: Triticum aestivum, post-emergence
How it was run: as §3

[10] = tested on: spring wheat; experiment: Test D postemergence; type: in vivo, Triticum aestivum; conditions: Triticum aestivum, post-emergence
How it was run: as §3

[11] = tested on: winter barley; experiment: Test D preemergence; type: in vivo, Hordeum vulgare; conditions: Hordeum vulgare, pre-emergence
How it was run: as §3

[12] = tested on: spring barley; experiment: Test D preemergence; type: in vivo, Hordeum vulgare; conditions: Hordeum vulgare, pre-emergence
How it was run: as §3

[13] = tested on: deadnettle; experiment: Test D postemergence; type: in vivo, Lamium amplexicaule; conditions: Lamium amplexicaule, post-emergence
How it was run: as §3

[14] = Postemergence, 31 g ai/ha, scale 0 to 100
[15] = Postemergence, 62 g ai/ha, scale 0 to 100
[16] = Postemergence, 125 g ai/ha, scale 0 to 100
[17] = Postemergence, 250 g ai/ha, scale 0 to 100
[18] = postemergence, 16 g ai/ha, scale 0 to 100, 0 no effect, 100 complete control

Question: `FC(F)(F)c1cnn(-c2ccccc2Oc2ncc(Cl)cn2)c1` [Compound 16] was tested. Which “Plant response rating, Ryegrass, Italian” value [1, 14] did it give?
Answer: 0

Question: And the “Plant response rating, Ryegrass, Italian” value [1, 15]?
Answer: 0

Question: And the “Plant response rating, Ryegrass, Italian” value [1, 16]?
Answer: 0

Question: And the “Plant response rating, Ryegrass, Italian” value [1, 17]?
Answer: 0

Question: And the “Plant response rating, Ryegrass, Italian” value [1, 18]?
Answer: 0

Question: And the “Plant response rating, Arrowleaf Sida” value [2, 14]?
Answer: 70

Question: What about the “Plant response rating, Arrowleaf Sida” value [2, 15] of the same compound?
Answer: 75

Question: What about the “Plant response rating, Arrowleaf Sida” value [2, 16] of the same compound?
Answer: 80

Question: What about the “Plant response rating, Arrowleaf Sida” value [2, 17] of the same compound?
Answer: 90

Question: And the “Plant response rating, Arrowleaf Sida” value [2, 18]?
Answer: 50

Question: What about the “Cocklebur plant response rating” value ([3]; 16 g ai/ha) of the same compound?
Answer: 0

Question: Which results are given for `FC(F)(F)c1cnn(-c2ccccc2Oc2ncc(Br)cn2)c1` [Compound 18, 5-bromo-2-[2-[4-(trifluoromethyl)-1H-pyrazol-1-yl]phenoxy]pyrimidine]?
Answer: pest or weed control at 16 g/ha ([4]; 16 g ai/ha, scale 0 (no effect) to 100 (complete control), read-out: Plant response rating, Oat, Wild): 0%; pest or weed control at 31 g/ha ([4]; 31 g ai/ha, scale 0-100, read-out: Plant response rating, Oat, Wild): 0%; pest or weed control at 62 g/ha ([4]; 62 g ai/ha, scale 0-100, read-out: Plant response rating, Oat, Wild): 0%; pest or weed control at 125 g/ha ([4]; 125 g ai/ha, scale 0-100, read-out: Plant response rating, Oat, Wild): 5%; pest or weed control at 250 g/ha ([4]; 250 g ai/ha, scale 0-100, read-out: Plant response rating, Oat, Wild): 30%; pest or weed control at 16 g/ha ([5]; 16 g ai/ha): 60%; pest or weed control at 31 g/ha ([5]; 31 g ai/ha): 55%; pest or weed control at 62 g/ha ([5]; 62 g ai/ha): 70%; pest or weed control at 125 g/ha ([5]; 125 g ai/ha): 100%; pest or weed control at 250 g/ha ([5]; 250 g ai/ha): 95%; pest or weed control at 16 g/ha ([6]; 16 g ai/ha, scale 0 (no effect) to 100 (complete control), read-out: Plant response rating, Chamomile): 5%; pest or weed control at 31 g/ha ([6]; 31 g ai/ha, scale 0-100, read-out: Plant response rating, Chamomile): 5%; pest or weed control at 125 g/ha ([6]; 125 g ai/ha, scale 0-100, read-out: Plant response rating, Chamomile): 50%; pest or weed control at 250 g/ha ([6]; 250 g ai/ha, scale 0-100, read-out: Plant response rating, Chamomile): 55%; plant injury at 16 g/ha ([7]; 16 g ai/ha, scale 0 (no effect) to 100 (complete control), read-out: Plant response rating, Wheat, Winter): 0%; plant injury at 31 g/ha ([7]; 31 g ai/ha, scale 0 (no effect) to 100 (complete control), read-out: Plant response rating, Wheat, Winter): 0%; plant injury at 62 g/ha ([7]; 62 g ai/ha, scale 0-100, read-out: Plant response rating, Wheat, Winter): 5%; plant injury at 125 g/ha ([7]; 125 g ai/ha, scale 0-100, read-out: Plant response rating, Wheat, Winter): 5%; plant injury at 250 g/ha ([7]; 250 g ai/ha, scale 0-100, read-out: Plant response rating, Wheat, Winter): 40%; plant injury at 16 g/ha ([8]; 16 g ai/ha, scale 0 (no effect) to 100 (complete control), read-out: Plant response rating, Wheat, Spring): 0%; plant injury at 31 g/ha ([8]; 31 g ai/ha, scale 0 (no effect) to 100 (complete control), read-out: Plant response rating, Wheat, Spring): 0%; plant injury at 62 g/ha ([8]; 62 g ai/ha, scale 0-100, read-out: Plant response rating, Wheat, Spring): 0%; plant injury at 125 g/ha ([8]; 125 g ai/ha, scale 0-100, read-out: Plant response rating, Wheat, Spring): 5%; plant injury at 250 g/ha ([8]; 250 g ai/ha, scale 0-100, read-out: Plant response rating, Wheat, Spring): 15%; Cocklebur plant response rating ([3]; 62 g ai/ha): 0; plant injury at 16 g/ha ([9]; 16 g ai/ha, scale 0-100, read-out: Plant response rating, Wheat, Winter): 5%; plant injury at 31 g/ha ([9]; 31 g ai/ha, scale 0 to 100 (0 no effect, 100 complete control), read-out: Plant response rating, Wheat, Winter): 5%; plant injury at 62 g/ha ([9]; 62 g ai/ha, scale 0 to 100 (0 no effect, 100 complete control), read-out: Plant response rating, Wheat, Winter): 10%; plant injury at 125 g/ha ([9]; 125 g ai/ha, scale 0 to 100 (0 no effect, 100 complete control), read-out: Plant response rating, Wheat, Winter): 15%; plant injury at 250 g/ha ([9]; 250 g ai/ha, scale 0 to 100 (0 no effect, 100 complete control), read-out: Plant response rating, Wheat, Winter): 20%; plant injury at 16 g/ha ([10]; 16 g ai/ha, scale 0-100, read-out: Plant response rating, Wheat, Spring): 10%; plant injury at 31 g/ha ([10]; 31 g ai/ha, scale 0 to 100 (0 no effect, 100 complete control), read-out: Plant response rating, Wheat, Spring): 10%; plant injury at 62 g/ha ([10]; 62 g ai/ha, scale 0 to 100 (0 no effect, 100 complete control), read-out: Plant response rating, Wheat, Spring): 15%; plant injury at 125 g/ha ([10]; 125 g ai/ha, scale 0 to 100 (0 no effect, 100 complete control), read-out: Plant response rating, Wheat, Spring): 20%; plant injury at 250 g/ha ([10]; 250 g ai/ha, scale 0 to 100 (0 no effect, 100 complete control), read-out: Plant response rating, Wheat, Spring): 25%; plant injury at 16 g/ha ([11]; 16 g ai/ha, scale 0 (no effect) to 100 (complete control), read-out: Plant response rating, Barley, Winter): 0%; plant injury at 31 g/ha ([11]; 31 g ai/ha, scale 0-100, read-out: Plant response rating, Barley, Winter): 10%; plant injury at 62 g/ha ([11]; 62 g ai/ha, scale 0-100, read-out: Plant response rating, Barley, Winter): 15%; plant injury at 125 g/ha ([11]; 125 g ai/ha, scale 0-100, read-out: Plant response rating, Barley, Winter): 15%; plant injury at 250 g/ha ([11]; 250 g ai/ha, scale 0-100, read-out: Plant response rating, Barley, Winter): 25%; plant injury at 16 g/ha ([12]; 16 g ai/ha, scale 0 (no effect) to 100 (complete control), read-out: Plant response rating, Barley, Spring): 0%; plant injury at 31 g/ha ([12]; 31 g ai/ha, scale 0-100, read-out: Plant response rating, Barley, Spring): 5%; plant injury at 62 g/ha ([12]; 62 g ai/ha, scale 0-100, read-out: Plant response rating, Barley, Spring): 5%; plant injury at 125 g/ha ([12]; 125 g ai/ha, scale 0-100, read-out: Plant response rating, Barley, Spring): 0%; plant injury at 250 g/ha ([12]; 250 g ai/ha, scale 0-100, read-out: Plant response rating, Barley, Spring): 30%; pest or weed control at 16 g/ha ([13]; 16 g ai/ha, scale 0-100, read-out: Plant response rating, Deadnettle): 50%; pest or weed control at 31 g/ha ([13]; 31 g ai/ha, scale 0 to 100 (0 no effect, 100 complete control), read-out: Plant response rating, Deadnettle): 65%; pest or weed control at 62 g/ha ([13]; 62 g ai/ha, scale 0 to 100 (0 no effect, 100 complete control), read-out: Plant response rating, Deadnettle): 75%; pest or weed control at 125 g/ha ([13]; 125 g ai/ha, scale 0 to 100 (0 no effect, 100 complete control), read-out: Plant response rating, Deadnettle): 90%; pest or weed control at 250 g/ha ([13]; 250 g ai/ha, scale 0 to 100 (0 no effect, 100 complete control), read-out: Plant response rating, Deadnettle): 100%
